In US9708316B2 (BRISTOL-MYERS SQUIBB COMPANY, priority 2014, dated 2017):

Key:
[1] = molecular target: HIS-TGFβR2 WT (Homo sapiens, UniProt P37173); experiment: HTRF probe-displacement assay, HIS-TGFβR2 WT; type: binding
[2] = molecular target: T1, HIS-TGFβR1 T204D (Homo sapiens, UniProt P36897, T204D); experiment: HTRF probe-displacement assay, HIS-TGFβR1 T204D; type: binding; settings: read-out: TGFβR1 (μM) IC50
T1 sequence (P36897 34-503 T204D): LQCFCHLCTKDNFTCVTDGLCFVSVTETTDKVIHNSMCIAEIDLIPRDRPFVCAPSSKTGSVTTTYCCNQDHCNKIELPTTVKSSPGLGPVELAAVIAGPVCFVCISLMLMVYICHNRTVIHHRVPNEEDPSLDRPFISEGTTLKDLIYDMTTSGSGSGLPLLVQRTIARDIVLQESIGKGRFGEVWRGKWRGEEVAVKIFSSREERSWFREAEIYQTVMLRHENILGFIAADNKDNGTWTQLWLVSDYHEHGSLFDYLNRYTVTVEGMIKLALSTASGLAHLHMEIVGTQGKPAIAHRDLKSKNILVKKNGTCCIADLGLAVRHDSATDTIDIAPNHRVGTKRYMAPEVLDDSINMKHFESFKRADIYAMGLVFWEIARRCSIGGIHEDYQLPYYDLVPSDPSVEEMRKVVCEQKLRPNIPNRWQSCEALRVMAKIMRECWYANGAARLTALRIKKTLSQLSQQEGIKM

Sequence of HIS-TGFβR2 WT (P37173 23-567): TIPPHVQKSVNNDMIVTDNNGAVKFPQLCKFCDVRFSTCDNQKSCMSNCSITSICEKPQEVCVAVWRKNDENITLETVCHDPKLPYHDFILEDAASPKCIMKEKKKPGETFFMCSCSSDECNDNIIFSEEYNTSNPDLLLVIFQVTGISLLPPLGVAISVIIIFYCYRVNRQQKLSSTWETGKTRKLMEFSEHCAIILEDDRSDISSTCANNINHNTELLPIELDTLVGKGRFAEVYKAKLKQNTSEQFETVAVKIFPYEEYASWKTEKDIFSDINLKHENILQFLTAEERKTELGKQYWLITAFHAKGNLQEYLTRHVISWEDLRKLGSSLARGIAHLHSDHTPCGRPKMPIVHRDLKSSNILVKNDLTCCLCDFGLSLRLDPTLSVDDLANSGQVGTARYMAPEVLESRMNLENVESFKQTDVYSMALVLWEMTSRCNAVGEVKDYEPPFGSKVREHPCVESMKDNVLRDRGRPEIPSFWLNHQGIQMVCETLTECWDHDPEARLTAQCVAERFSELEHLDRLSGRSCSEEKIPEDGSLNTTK

| Structure (SMILES) | IC50 [1] | IC50 [2] |
| --- | --- | --- |
| CC(=O)Nc1cc(-c2[nH]c3cccnc3c2-c2ccnc(C#N)c2)ccn1 [Example 190, N-(4-(3-(2-Cyanopyridin-4-yl)-1H-pyrrolo[3,2-b]pyridin-2-yl)pyridin-2-yl)acetamide] | 7.56 µM | 0.0443 µM |
| CC(=O)Nc1cc(-c2[nH]c3cccnc3c2-c2ccn[nH]2)ccn1 [Example 191, N-(4-(3-(1H-Pyrazol-5-yl)-1H-pyrrolo[3,2-b]pyridin-2-yl)pyridin-2-yl)acetamide] | 2 µM | 0.0939 µM |
| COc1ccc(-c2c(-c3ccnc(NC(C)=O)c3)[nH]c3cccnc23)nc1Cl [Example 192, N-(4-(3-(6-Chloro-5-methoxypyridin-2-yl)-1H-pyrrolo[3,2-b]pyridin-2-yl)pyridin-2-yl)acetamide] | > 15 µM | 0.11 µM |
| CC(=O)Nc1cc(-c2[nH]c3cccnc3c2-c2ccc(F)c(C(F)F)n2)ccn1 [Example 193, N-(4-(3-(6-(Difluoromethyl)-5-fluoropyridin-2-yl)-1H-pyrrolo[3,2-b]pyridin-2-yl)pyridin-2-yl)acetamide] | > 15 µM | 0.0006 µM |
| COc1cnc(-c2c(-c3ccnc(NC(C)=O)c3)[nH]c3cccnc23)cn1 [Example 194, N-(4-(3-(5-Methoxypyrazin-2-yl)-1H-pyrrolo[3,2-b]pyridin-2-yl)pyridin-2-yl)acetamide] | 4.31 µM | 0.005 µM |
| CC(=O)Nc1cc(-c2[nH]c3cccnc3c2-c2nccc(C)n2)ccn1 [Example 195, N-(4-(3-(4-Methylpyrimidin-2-yl)-1H-pyrrolo[3,2-b]pyridin-2-yl)pyridin-2-yl)acetamide] | > 15 µM | 0.0048 µM |
| COc1cc(-c2c(-c3ccnc(NC(C)=O)c3)[nH]c3cccnc23)ccn1 [Example 196, N-(4-(3-(2-Methoxypyridin-4-yl)-1H-pyrrolo[3,2-b]pyridin-2-yl)pyridin-2-yl)acetamide] | 1.21 µM | 0.0951 µM |
| CC(=O)Nc1cc(-c2[nH]c3cccnc3c2-c2nccc(Cl)n2)ccn1 [Example 197, N-(4-(3-(4-Chloropyrimidin-2-yl)-1H-pyrrolo[3,2-b]pyridin-2-yl)pyridin-2-yl)acetamide] | > 15 µM | 3.54 µM |
| COc1ccc(-c2c(-c3ccnc(NC(C)=O)c3)[nH]c3cccnc23)nn1 [Example 198, N-(4-(3-(6-Methoxypyridazin-3-yl)-1H-pyrrolo[3,2-b]pyridin-2-yl)pyridin-2-yl)acetamide] | 1.48 µM | 0.0011 µM |
| CC(=O)Nc1cc(-c2[nH]c3cccnc3c2-c2nc(C)cs2)ccn1 [Example 199, N-(4-(3-(4-Methylthiazol-2-yl)-1H-pyrrolo[3,2-b]pyridin-2-yl)pyridin-2-yl)acetamide] | 0.041 µM | 0.0006 µM |
| CC(=O)Nc1cc(-c2[nH]c3cccnc3c2-c2nc(C(F)F)cs2)ccn1 [Example 200, N-(4-(3-(4-(Difluoromethyl)thiazol-2-yl)-1H-pyrrolo[3,2-b]pyridin-2-yl)pyridin-2-yl)acetamide] | 0.548 µM | 0.0007 µM |
| COc1nc(-c2c(-c3ccnc(NC(C)=O)c3)[nH]c3cccnc23)cs1 [Example 201, N-(4-(3-(2-Methoxythiazol-4-yl)-1H-pyrrolo[3,2-b]pyridin-2-yl)pyridin-2-yl)acetamide] | 1.53 µM | 0.0275 µM |
| CC(=O)Nc1cc(-c2[nH]c3cccnc3c2-c2ncc(C)s2)ccn1 [Example 202, N-(4-(3-(5-Methylthiazol-2-yl)-1H-pyrrolo[3,2-b]pyridin-2-yl)pyridin-2-yl)acetamide] | 0.225 µM | 0.0015 µM |
| CC(=O)Nc1cc(-c2[nH]c3cccnc3c2-c2nc(C#N)cs2)ccn1 [Example 203, N-(4-(3-(4-Cyanothiazol-2-yl)-1H-pyrrolo[3,2-b]pyridin-2-yl)pyridin-2-yl)acetamide] | > 15 µM | 0.774 µM |
| CC(=O)Nc1cc(-c2[nH]c3cccnc3c2-c2nc(CO)cs2)ccn1 [Example 204, N-(4-(3-(4-(Hydroxymethyl)thiazol-2-yl)-1H-pyrrolo[3,2-b]pyridin-2-yl)pyridin-2-yl)acetamide] | 0.111 µM | 0.0055 µM |
| CC(=O)Nc1cc(-c2[nH]c3cccnc3c2-c2nccs2)ccn1 [Example 205, N-(4-(3-(Thiazol-2-yl)-1H-pyrrolo[3,2-b]pyridin-2-yl)pyridin-2-yl)acetamide] | 0.147 µM | 0.0029 µM |
| CC(=O)Nc1cc(-c2[nH]c3cc(F)cnc3c2-c2ncc(Cl)s2)ccn1 [Example 206, N-(4-(3-(5-Chlorothiazol-2-yl)-6-fluoro-1H-pyrrolo[3,2-b]pyridin-2-yl)pyridin-2-yl)acetamide] | 0.325 µM | 0.0068 µM |

| Structure (SMILES) | IC50 [1] | IC50 [2] |
| --- | --- | --- |
| COc1cnc2c(-c3nc(C)cs3)c(-c3ccnc(NC(C)=O)c3)[nH]c2c1 [Example 208, N-(4-(6-Methoxy-3-(4-methylthiazol-2-yl)-1H-pyrrolo[3,2-b]pyridin-2-yl)pyridin-2-yl)acetamide] | 0.044 µM | 0.0006 µM |
| COc1cnc2c(-c3ncc(C)s3)c(-c3ccnc(NC(C)=O)c3)[nH]c2c1 [Example 209, N-(4-(6-Methoxy-3-(5-methylthiazol-2-yl)-1H-pyrrolo[3,2-b]pyridin-2-yl)pyridin-2-yl)acetamide] | 0.218 µM | 0.0009 µM |
| COc1cnc2c(-c3csc(C)n3)c(-c3ccnc(NC(C)=O)c3)[nH]c2c1 [Example 210, N-(4-(6-Methoxy-3-(2-methylthiazol-4-yl)-1H-pyrrolo[3,2-b]pyridin-2-yl)pyridin-2-yl)acetamide] | 0.815 µM | 0.0025 µM |
| CC(=O)Nc1cc(-c2[nH]c3cccnc3c2-c2csc(C)n2)ccn1 [Example 211, N-(4-(3-(2-Methylthiazol-4-yl)-1H-pyrrolo[3,2-b]pyridin-2-yl)pyridin-2-yl)acetamide] | 1.04 µM | 0.0049 µM |
| CC(=O)Nc1cc(-c2[nH]c3c(C)ccnc3c2-c2nc(C(F)(F)F)cs2)ccn1 [Example 212, N-(4-(7-Methyl-3-(4-(trifluoromethyl)thiazol-2-yl)-1H-pyrrolo[3,2-b]pyridin-2-yl)pyridin-2-yl)acetamide] | 8.82 µM | 0.0005 µM |
| COc1ccc(-c2c(-c3ccnc(NC(C)=O)c3)[nH]c3c(C(F)F)ccnc23)cn1 [Example 213, N-(4-(7-(Difluoromethyl)-3-(6-methoxypyridin-3-yl)-1H-pyrrolo[3,2-b]pyridin-2-yl)pyridin-2-yl)acetamide] | 0.118 µM | 0.0061 µM |
| CC(=O)Nc1cc(-c2[nH]c3c(CO)ccnc3c2-c2nc(C)cs2)ccn1 [Example 214, N-(4-(7-(hydroxymethyl)-3-(4-methylthiazol-2-yl)-1H-pyrrolo[3,2-b]pyridin-2-yl)pyridin-2-yl)acetamide] | 0.173 µM | 0.0014 µM |
| COc1ccc(-c2c(-c3ccnc(NC(C)=O)c3)[nH]c3c(C)ccnc23)cn1 [Example 215, N-(4-(3-(6-Methoxypyridin-3-yl)-7-methyl-1H-pyrrolo[3,2-b]pyridin-2-yl)pyridin-2-yl)acetamide] | 0.999 µM | 0.0885 µM |
| CC(=O)Nc1cc(-c2[nH]c3c(C)ccnc3c2-c2cccc(C(F)F)n2)ccn1 [Example 216, N-(4-(3-(6-(Difluoromethyl)pyridin-2-yl)-7-methyl-1H-pyrrolo[3,2-b]pyridin-2-yl)pyridin-2-yl)acetamide] | 3.77 µM | 0.0013 µM |
| COc1ccc(-c2c(-c3ccnc(NC(C)=O)c3)[nH]c3c(C)ccnc23)nc1 [Example 217, N-(4-(3-(5-Methoxypyridin-2-yl)-7-methyl-1H-pyrrolo[3,2-b]pyridin-2-yl)pyridin-2-yl)acetamide] | > 15 µM | > 15 µM |
| CC(=O)Nc1cc(-c2[nH]c3c(C)ccnc3c2-c2ncc(C)s2)ccn1 [Example 218, N-(4-(7-Methyl-3-(5-methylthiazol-2-yl)-1H-pyrrolo[3,2-b]pyridin-2-yl)pyridin-2-yl)acetamide] | 0.594 µM | 0.0017 µM |
| CC(=O)Nc1cc(-c2[nH]c3c(C)ccnc3c2-c2nc(C(F)F)cs2)ccn1 [Example 220, N-(4-(3-(4-(Difluoromethyl)thiazol-2-yl)-7-methyl-1H-pyrrolo[3,2-b]pyridin-2-yl)pyridin-2-yl)acetamide] | 1.38 µM | 0.0005 µM |
| CC(=O)Nc1cc(-c2[nH]c3c(C)ccnc3c2-c2csc(C)n2)ccn1 [Example 221, N-(4-(7-Methyl-3-(2-methylthiazol-4-yl)-1H-pyrrolo[3,2-b]pyridin-2-yl)pyridin-2-yl)acetamide] | 1.36 µM | 0.0037 µM |
| CC(=O)Nc1cc(-c2[nH]c3c(C(F)F)ccnc3c2-c2nc(C)cs2)ccn1 [Example 222, N-(4-(7-(Difluoromethyl)-3-(4-methylthiazol-2-yl)-1H-pyrrolo[3,2-b]pyridin-2-yl)pyridin-2-yl)acetamide] | 0.129 µM | 0.0015 µM |
| CC(=O)Nc1cc(-c2[nH]c3cc(C)cnc3c2-c2nc(C)cs2)ccn1 [Example 223, N-(4-(6-Methyl-3-(4-methylthiazol-2-yl)-1H-pyrrolo[3,2-b]pyridin-2-yl)pyridin-2-yl)acetamide] | 0.043 µM | 0.0008 µM |
| CC(=O)Nc1cc(-c2[nH]c3cc(C)cnc3c2-c2nc(C#N)cs2)ccn1 [Example 224, N-(4-(3-(4-Cyanothiazol-2-yl)-6-methyl-1H-pyrrolo[3,2-b]pyridin-2-yl)pyridin-2-yl)acetamide] | 0.544 µM | 0.0012 µM |
